Legend:
Melanocortin receptor 4 = Melanocortin receptor 4 (Homo sapiens, UniProt P32245)
Histamine H2 receptor = Histamine H2 receptor (Homo sapiens, UniProt P25021); assay type: functional, cell-based
[1] = target: T1, 5-hydroxytryptamine receptor 2C (Homo sapiens, UniProt P28335)
T1 sequence (P28335 whole entry): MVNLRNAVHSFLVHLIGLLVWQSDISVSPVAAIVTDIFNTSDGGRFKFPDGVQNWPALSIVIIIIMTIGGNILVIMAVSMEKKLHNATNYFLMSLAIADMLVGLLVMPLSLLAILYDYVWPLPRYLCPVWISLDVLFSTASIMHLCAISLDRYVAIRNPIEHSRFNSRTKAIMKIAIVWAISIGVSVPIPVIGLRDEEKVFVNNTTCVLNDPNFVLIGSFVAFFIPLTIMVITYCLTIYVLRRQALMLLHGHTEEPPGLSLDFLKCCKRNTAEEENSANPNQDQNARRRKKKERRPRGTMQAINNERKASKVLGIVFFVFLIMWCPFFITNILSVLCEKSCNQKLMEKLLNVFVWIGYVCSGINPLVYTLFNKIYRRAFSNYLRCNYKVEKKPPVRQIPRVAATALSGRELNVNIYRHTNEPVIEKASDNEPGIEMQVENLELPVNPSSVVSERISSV

[2] = target: 5-hydroxytryptamine receptor 2B (Homo sapiens, UniProt P41595); assay type: functional, cell-based
5-hydroxytryptamine receptor 2B, sequence (P41595 whole entry): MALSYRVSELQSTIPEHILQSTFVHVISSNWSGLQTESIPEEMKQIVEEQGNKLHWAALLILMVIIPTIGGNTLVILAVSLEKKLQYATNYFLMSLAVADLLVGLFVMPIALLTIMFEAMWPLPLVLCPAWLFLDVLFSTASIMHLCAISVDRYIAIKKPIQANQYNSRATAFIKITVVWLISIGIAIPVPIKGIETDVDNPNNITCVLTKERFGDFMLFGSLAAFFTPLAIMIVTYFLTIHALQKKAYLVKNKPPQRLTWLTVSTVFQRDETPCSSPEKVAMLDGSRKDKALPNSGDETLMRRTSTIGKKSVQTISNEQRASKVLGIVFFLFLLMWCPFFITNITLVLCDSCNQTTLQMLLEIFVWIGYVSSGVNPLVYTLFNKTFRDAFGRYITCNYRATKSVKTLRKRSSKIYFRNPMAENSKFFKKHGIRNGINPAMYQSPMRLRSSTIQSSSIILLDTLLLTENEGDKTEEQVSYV

[3] = target: T2, Alpha-2A adrenergic receptor (Homo sapiens, UniProt P08913); assay type: functional, cell-based
T2 sequence (P08913 whole entry): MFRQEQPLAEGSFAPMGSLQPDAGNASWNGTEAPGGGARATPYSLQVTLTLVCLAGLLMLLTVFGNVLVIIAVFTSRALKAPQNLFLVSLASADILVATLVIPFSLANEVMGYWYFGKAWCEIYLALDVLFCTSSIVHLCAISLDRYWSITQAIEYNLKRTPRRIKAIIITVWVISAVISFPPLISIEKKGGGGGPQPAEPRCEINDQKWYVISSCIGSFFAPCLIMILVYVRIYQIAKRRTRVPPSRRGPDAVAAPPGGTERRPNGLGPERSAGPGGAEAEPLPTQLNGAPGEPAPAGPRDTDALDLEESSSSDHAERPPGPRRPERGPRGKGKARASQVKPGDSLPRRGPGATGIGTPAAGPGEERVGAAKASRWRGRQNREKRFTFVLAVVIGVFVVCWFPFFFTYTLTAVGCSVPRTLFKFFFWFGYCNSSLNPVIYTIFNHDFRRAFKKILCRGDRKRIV

[4] = target: T3, Amine oxidase [flavin-containing] A (Homo sapiens, UniProt P21397); assay type: functional
T3 sequence (P21397 whole entry): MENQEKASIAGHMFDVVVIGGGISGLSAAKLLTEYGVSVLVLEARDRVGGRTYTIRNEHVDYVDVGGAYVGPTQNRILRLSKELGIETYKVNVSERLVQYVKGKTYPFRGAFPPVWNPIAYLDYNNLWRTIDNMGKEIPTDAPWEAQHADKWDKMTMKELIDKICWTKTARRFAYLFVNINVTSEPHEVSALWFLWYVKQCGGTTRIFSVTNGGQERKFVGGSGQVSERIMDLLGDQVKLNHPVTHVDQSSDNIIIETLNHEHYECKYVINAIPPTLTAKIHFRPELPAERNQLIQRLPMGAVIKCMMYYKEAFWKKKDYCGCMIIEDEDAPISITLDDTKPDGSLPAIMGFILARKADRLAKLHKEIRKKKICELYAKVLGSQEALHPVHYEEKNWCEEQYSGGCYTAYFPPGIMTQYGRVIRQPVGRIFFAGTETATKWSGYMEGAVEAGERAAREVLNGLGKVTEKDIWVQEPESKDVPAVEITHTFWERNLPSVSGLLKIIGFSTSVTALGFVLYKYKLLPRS

Adenosine receptor A1 = target: T4, Adenosine receptor A1 (Homo sapiens, UniProt P30542)
T4 sequence (P30542 whole entry): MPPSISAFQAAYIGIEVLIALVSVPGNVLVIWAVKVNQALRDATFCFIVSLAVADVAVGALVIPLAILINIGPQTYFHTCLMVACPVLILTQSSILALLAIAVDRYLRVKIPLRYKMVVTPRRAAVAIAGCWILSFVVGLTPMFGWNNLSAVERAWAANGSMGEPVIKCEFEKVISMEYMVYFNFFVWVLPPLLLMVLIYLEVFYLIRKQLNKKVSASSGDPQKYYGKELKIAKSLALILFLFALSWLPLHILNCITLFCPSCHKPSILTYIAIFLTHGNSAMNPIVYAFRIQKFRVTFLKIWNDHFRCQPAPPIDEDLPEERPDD

[5] = target: T5, Alpha-1A adrenergic receptor (Homo sapiens, UniProt P35348); assay type: functional, cell-based
T5 sequence (P35348 whole entry): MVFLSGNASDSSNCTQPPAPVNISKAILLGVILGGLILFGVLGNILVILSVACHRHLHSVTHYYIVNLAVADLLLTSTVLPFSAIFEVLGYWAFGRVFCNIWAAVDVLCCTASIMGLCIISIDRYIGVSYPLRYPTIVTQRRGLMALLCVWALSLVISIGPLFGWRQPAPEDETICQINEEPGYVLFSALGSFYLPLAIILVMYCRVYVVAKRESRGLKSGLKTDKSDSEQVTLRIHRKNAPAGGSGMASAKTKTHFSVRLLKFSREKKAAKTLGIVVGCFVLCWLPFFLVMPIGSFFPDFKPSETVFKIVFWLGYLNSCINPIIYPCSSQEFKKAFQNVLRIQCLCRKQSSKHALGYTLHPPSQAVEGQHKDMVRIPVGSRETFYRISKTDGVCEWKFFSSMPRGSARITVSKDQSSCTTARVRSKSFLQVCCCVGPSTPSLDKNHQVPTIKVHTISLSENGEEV

[6] = target: Voltage-dependent L-type calcium channel subunit alpha-1C (Rattus norvegicus, UniProt P22002); assay type: functional
[7] = target: cGMP-inhibited 3',5'-cyclic phosphodiesterase 3A (Homo sapiens, UniProt Q14432); assay type: functional
cGMP-inhibited 3',5'-cyclic phosphodiesterase 3A, sequence (Q14432 whole entry): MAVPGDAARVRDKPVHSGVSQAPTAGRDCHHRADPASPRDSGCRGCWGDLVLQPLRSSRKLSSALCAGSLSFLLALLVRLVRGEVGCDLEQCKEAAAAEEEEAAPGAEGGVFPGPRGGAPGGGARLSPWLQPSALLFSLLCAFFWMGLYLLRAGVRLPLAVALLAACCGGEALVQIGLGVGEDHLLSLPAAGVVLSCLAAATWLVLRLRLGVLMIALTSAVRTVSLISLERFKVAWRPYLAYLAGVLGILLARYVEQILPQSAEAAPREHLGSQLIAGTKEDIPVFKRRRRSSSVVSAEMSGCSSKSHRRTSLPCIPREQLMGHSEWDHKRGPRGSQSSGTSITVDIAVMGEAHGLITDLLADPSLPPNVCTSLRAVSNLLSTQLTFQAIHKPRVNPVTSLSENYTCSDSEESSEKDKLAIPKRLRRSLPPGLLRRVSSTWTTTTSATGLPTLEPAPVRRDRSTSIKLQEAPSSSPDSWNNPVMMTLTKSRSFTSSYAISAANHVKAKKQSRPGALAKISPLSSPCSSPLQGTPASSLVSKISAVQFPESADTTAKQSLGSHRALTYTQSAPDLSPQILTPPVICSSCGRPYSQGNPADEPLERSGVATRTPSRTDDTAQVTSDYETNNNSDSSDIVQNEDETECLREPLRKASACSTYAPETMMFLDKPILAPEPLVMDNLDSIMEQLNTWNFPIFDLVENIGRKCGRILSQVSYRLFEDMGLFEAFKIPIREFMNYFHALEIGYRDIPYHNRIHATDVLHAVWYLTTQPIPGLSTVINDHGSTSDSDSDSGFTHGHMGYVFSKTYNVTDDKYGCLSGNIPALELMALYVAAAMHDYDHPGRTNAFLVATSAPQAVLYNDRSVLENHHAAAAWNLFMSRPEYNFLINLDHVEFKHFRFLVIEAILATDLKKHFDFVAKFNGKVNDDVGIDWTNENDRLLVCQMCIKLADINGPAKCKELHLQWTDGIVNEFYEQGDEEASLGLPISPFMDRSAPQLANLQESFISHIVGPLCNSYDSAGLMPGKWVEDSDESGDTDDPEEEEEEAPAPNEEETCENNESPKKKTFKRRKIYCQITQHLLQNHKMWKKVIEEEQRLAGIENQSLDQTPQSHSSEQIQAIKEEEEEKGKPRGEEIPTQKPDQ

[8] = target: Neuronal acetylcholine receptor subunit alpha-4 (Homo sapiens, UniProt P43681)
Neuronal acetylcholine receptor subunit alpha-4, sequence (P43681 whole entry): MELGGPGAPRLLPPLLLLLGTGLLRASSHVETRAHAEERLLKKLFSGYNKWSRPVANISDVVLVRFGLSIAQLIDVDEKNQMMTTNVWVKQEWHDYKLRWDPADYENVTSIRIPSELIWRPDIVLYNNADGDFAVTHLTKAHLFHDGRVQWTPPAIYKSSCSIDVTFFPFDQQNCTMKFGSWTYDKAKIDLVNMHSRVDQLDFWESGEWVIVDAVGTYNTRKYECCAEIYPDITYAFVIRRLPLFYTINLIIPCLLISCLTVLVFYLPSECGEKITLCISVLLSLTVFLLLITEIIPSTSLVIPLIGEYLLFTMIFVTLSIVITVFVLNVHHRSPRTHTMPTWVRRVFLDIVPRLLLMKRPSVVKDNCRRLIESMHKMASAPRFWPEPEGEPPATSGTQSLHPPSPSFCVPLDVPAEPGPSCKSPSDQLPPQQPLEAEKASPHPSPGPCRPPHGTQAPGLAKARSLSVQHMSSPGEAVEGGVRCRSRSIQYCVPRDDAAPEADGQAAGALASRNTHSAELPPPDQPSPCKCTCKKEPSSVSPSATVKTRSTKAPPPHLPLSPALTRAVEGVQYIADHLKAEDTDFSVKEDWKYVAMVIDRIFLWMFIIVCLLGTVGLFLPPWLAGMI

[9] = target: T5, Alpha-1A adrenergic receptor
[10] = target: Sodium-dependent dopamine transporter (Homo sapiens, UniProt Q01959)
Sodium-dependent dopamine transporter, sequence (Q01959 whole entry): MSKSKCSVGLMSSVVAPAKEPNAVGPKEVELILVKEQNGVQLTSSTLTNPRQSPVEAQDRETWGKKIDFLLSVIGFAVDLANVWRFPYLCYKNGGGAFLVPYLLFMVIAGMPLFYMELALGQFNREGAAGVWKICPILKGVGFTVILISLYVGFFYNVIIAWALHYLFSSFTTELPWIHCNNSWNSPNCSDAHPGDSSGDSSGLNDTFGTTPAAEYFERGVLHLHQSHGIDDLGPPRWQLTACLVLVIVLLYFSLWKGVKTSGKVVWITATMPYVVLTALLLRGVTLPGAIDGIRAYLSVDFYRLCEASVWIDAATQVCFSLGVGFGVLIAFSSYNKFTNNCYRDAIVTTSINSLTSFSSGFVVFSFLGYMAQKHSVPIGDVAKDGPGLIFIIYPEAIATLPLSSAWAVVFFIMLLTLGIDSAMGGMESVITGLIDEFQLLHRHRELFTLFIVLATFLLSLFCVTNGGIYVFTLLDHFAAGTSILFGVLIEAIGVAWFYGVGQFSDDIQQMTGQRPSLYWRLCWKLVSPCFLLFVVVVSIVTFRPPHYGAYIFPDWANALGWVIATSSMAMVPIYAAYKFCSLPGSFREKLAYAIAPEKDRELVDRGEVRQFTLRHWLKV

[11] = target: Growth hormone secretagogue receptor type 1 (Homo sapiens, UniProt Q92847)
Growth hormone secretagogue receptor type 1, sequence (Q92847 whole entry): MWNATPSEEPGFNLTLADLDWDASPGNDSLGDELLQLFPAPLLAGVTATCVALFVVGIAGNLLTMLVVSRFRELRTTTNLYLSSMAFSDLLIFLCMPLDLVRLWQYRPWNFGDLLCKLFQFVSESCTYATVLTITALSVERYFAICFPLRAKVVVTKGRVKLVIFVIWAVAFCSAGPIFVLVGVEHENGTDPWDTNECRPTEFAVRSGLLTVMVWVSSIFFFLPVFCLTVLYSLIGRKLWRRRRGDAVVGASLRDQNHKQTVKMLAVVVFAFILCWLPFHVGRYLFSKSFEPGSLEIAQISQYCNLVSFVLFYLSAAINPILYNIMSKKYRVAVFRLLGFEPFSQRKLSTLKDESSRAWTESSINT

Cannabinoid receptor 1 = Cannabinoid receptor 1 (Homo sapiens, UniProt P21554); assay type: functional, cell-based
Cannabinoid receptor 1, sequence (P21554 whole entry): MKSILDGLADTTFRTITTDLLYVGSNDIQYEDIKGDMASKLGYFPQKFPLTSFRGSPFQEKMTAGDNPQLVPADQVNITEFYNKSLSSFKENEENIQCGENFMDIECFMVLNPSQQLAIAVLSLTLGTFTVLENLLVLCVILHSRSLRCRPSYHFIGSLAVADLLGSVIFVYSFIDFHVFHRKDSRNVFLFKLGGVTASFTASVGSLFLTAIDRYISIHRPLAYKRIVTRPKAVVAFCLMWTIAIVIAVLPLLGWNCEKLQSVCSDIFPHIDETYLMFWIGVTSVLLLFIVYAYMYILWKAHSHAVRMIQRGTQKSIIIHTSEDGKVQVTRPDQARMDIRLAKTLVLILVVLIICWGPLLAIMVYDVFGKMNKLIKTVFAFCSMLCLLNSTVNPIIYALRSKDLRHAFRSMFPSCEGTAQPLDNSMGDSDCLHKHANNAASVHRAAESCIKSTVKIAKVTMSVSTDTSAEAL
Note: assay procedure not described here.

Melanocortin receptor 4, sequence (P32245 whole entry): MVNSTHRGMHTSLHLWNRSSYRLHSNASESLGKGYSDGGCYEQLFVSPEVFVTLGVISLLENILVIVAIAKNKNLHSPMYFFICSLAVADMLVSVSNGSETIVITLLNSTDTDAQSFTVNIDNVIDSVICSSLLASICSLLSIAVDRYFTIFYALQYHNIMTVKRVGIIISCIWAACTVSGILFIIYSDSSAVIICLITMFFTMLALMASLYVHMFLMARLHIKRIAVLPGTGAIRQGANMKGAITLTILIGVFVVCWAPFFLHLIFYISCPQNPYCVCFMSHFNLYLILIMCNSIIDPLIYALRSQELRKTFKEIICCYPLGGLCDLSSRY
Histamine H2 receptor, sequence (P25021 whole entry): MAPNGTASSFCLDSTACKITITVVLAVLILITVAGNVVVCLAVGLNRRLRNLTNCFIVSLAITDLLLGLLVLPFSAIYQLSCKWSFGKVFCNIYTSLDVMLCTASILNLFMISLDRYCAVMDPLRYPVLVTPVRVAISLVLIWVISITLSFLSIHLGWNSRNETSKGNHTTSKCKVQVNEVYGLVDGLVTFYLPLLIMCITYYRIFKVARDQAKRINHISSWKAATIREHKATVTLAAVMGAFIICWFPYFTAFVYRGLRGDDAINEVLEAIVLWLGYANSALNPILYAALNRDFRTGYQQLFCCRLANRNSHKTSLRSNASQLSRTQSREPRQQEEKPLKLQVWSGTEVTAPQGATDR

Row | SMILES | AC50 (Melanocortin receptor 4) | AC50 (Histamine H2 receptor) | AC50 [1] | AC50 [2] | AC50 [3] | AC50 [4] | AC50 (Adenosine receptor A1) | AC50 [5] | AC50 [6] | AC50 [7] | AC50 [8] | AC50 [9] | AC50 [10] | AC50 [11] | AC50 (Cannabinoid receptor 1)
1 | O=C1CN=C(c2ccccc2Cl)c2cc([N+](=O)[O-])ccc2N1 [CLONAZEPAM] | > 30 µM | > 10 µM | > 30 µM | > 10 µM | > 10 µM | > 10 µM | > 30 µM | > 30 µM | > 10 µM | > 30 µM | > 10 µM | 11.9 µM | > 10 µM | > 30 µM | –
2 | OCCN(CCO)c1nc(N2CCCCC2)c2nc(N(CCO)CCO)nc(N3CCCCC3)c2n1 [DIPYRIDAMOLE] | > 30 µM | > 30 µM | > 30 µM | 15 µM | > 10 µM | > 30 µM | > 30 µM | 3.5 µM | > 30 µM | > 30 µM | – | > 30 µM | > 30 µM | > 30 µM | –
3 | Cc1cnc(Nc2ccc(OCCN3CCCC3)cc2)nc1Nc1cccc(S(=O)(=O)NC(C)(C)C)c1 [FEDRATINIB] | > 30 µM | > 10 µM | > 30 µM | > 10 µM | > 10 µM | > 10 µM | 7.17 µM | – | > 10 µM | > 30 µM | > 10 µM | > 10 µM | 0.08 µM | 9.16 µM | –
4 | CN1C2CCCC1CC(NC(=O)c1nn(C)c3ccccc13)C2 (centres undefined) [GRANISETRON] | > 30 µM | > 10 µM | – | > 10 µM | > 10 µM | > 10 µM | > 30 µM | > 30 µM | > 10 µM | > 10 µM | – | > 10 µM | > 10 µM | > 30 µM | > 30 µM
5 | COc1ccc2c3c1O[C@H]1C(=O)CC[C@H]4[C@@H](C2)N(C)CC[C@]314 [HYDROCODONE] | > 30 µM | > 10 µM | > 30 µM | > 10 µM | > 10 µM | > 10 µM | > 30 µM | > 30 µM | > 10 µM | > 30 µM | > 10 µM | > 10 µM | > 10 µM | > 30 µM | –
6 | CC(=O)N1CCN(c2ccc(OCC3COC(Cn4ccnc4)(c4ccc(Cl)cc4Cl)O3)cc2)CC1 (centres undefined) [KETOCONAZOLE] | > 10 µM | > 10 µM | > 30 µM | > 10 µM | > 10 µM | > 10 µM | > 30 µM | – | > 10 µM | > 30 µM | > 10 µM | > 10 µM | > 30 µM | > 10 µM | > 30 µM
7 | CCC1(CC)C(=O)NC(=O)N(C)C1=O [METHARBITAL] | > 10 µM | > 10 µM | > 30 µM | > 10 µM | > 10 µM | > 10 µM | > 10 µM | – | > 10 µM | > 30 µM | > 10 µM | > 10 µM | > 10 µM | > 10 µM | –
8 | Nc1cc(N2CCCCC2)nc(N)[n+]1[O-] [MINOXIDIL] | > 30 µM | > 30 µM | > 30 µM | > 10 µM | > 10 µM | > 10 µM | > 30 µM | > 30 µM | > 10 µM | > 30 µM | > 10 µM | > 10 µM | > 30 µM | > 30 µM | –
9 | CCOC(=O)O[C@]1(C(=O)COC(=O)CC)CC[C@H]2[C@@H]3CCC4=CC(=O)C=C[C@]4(C)[C@H]3[C@@H](O)C[C@@]21C [PREDNICARBATE] | > 10 µM | > 10 µM | > 30 µM | > 10 µM | > 10 µM | > 10 µM | > 10 µM | – | > 10 µM | > 30 µM | > 10 µM | > 10 µM | > 10 µM | > 10 µM | –
10 | CCC(=O)[C@@]1(C)[C@H](C)C[C@H]2[C@@H]3CCC4=CC(=O)C=C[C@]4(C)[C@H]3[C@@H](O)C[C@@]21C [RIMEXOLONE] | > 10 µM | > 10 µM | > 30 µM | > 10 µM | > 10 µM | > 10 µM | > 10 µM | – | > 10 µM | > 30 µM | > 10 µM | > 10 µM | > 10 µM | > 10 µM | –
11 | Nc1ccc(S(=O)(=O)Nc2ncccn2)cc1 [SULFADIAZINE] | > 10 µM | > 10 µM | > 30 µM | > 10 µM | > 10 µM | > 10 µM | > 10 µM | – | > 10 µM | > 30 µM | > 10 µM | > 10 µM | > 10 µM | > 10 µM | –
12 | Cc1cccc(Nc2ccncc2S(=O)(=O)NC(=O)NC(C)C)c1 [TORSEMIDE] | > 30 µM | > 10 µM | > 30 µM | > 10 µM | > 10 µM | > 10 µM | > 30 µM | – | > 10 µM | > 30 µM | > 30 µM | > 10 µM | > 10 µM | > 30 µM | –
13 | OCC(CO)N[C@H]1C[C@](O)(CO)[C@@H](O)[C@H](O)[C@H]1O [VOGLIBOSE] | > 30 µM | > 30 µM | > 30 µM | > 30 µM | > 30 µM | > 30 µM | > 30 µM | > 30 µM | > 30 µM | > 30 µM | > 30 µM | > 30 µM | > 30 µM | > 30 µM | –
